# Data published in PubChem BioAssay (NCI).
#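 How tested: cells in 96-well plates exposed to compound for 48 hours at five concentrations. At the GI50, growth is halved. TGI: concentration producing complete growth inhibition.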
# Key:
# Test in all cases: DTP human tumour cell line panel, 48 h
# OVCAR-4 ovarian = test system: OVCAR-4 ovarian
# HOP-62 NSCLC = test system: HOP-62 NSCLC
# HS 578T breast = test system: HS 578T breast
# NCI/ADR-RES ovarian = test system: NCI/ADR-RES ovarian
# T-47D breast = test system: T-47D breast
# MDA-MB-435 = test system: MDA-MB-435
# SK-MEL-2 melanoma = test system: SK-MEL-2 melanoma
# SW-620 colon = test system: SW-620 colon
# COLO 205 colon = test system: COLO 205 colon
# K-562 leukemia = test system: K-562 leukemia
# SK-MEL-5 melanoma = test system: SK-MEL-5 melanoma
# SNB-19 CNS = test system: SNB-19 CNS
# DU-145 prostate = test system: DU-145 prostate
# TK-10 renal = test system: TK-10 renal
# KM12 colon = test system: KM12 colon
# NCI-H522 lung = test system: NCI-H522 lung
# SF-295 CNS = test system: SF-295 CNS
# HCT-116 colon = test system: HCT-116 colon
# MDA-MB-231 breast = test system: MDA-MB-231 breast
# HT29 colon = test system: HT29 colon
# SF-268 CNS = test system: SF-268 CNS
# UACC-62 melanoma = test system: UACC-62 melanoma
# SK-MEL-28 melanoma = test system: SK-MEL-28 melanoma
# CCRF-CEM leukemia = test system: CCRF-CEM leukemia
# MALME-3M melanoma = test system: MALME-3M melanoma
# U251 CNS = test system: U251 CNS
# MOLT-4 leukemia = test system: MOLT-4 leukemia
# LOX IMVI melanoma = test system: LOX IMVI melanoma
# IGROV1 ovarian = test system: IGROV1 ovarian
# MCF7 breast = test system: MCF7 breast
# SF-539 CNS = test system: SF-539 CNS
# HCC-2998 colon = test system: HCC-2998 colon
# OVCAR-5 ovarian = test system: OVCAR-5 ovarian
# HCT-15 colon = test system: HCT-15 colon
# A549 NSCLC = test system: A549 NSCLC
# BT-549 breast = test system: BT-549 breast
# NCI-H460 lung = test system: NCI-H460 lung
# M14 melanoma = test system: M14 melanoma
# CAKI-1 renal = test system: CAKI-1 renal
# NCI-H226 lung = test system: NCI-H226 lung
# UO-31 renal = test system: UO-31 renal
# NCI-H23 lung = test system: NCI-H23 lung
# OVCAR-3 ovarian = test system: OVCAR-3 ovarian
# 786-0 renal = test system: 786-0 renal
# SK-OV-3 ovarian = test system: SK-OV-3 ovarian
# OVCAR-8 ovarian = test system: OVCAR-8 ovarian
# RPMI-8226 leukemia = test system: RPMI-8226 leukemia
# SN12C renal = test system: SN12C renal
# A498 renal = test system: A498 renal
# ACHN renal = test system: ACHN renal
# HOP-92 NSCLC = test system: HOP-92 NSCLC
# RXF 393 renal = test system: RXF 393 renal
# EKVX NSCLC = test system: EKVX NSCLC
# UACC-257 melanoma = test system: UACC-257 melanoma
# PC-3 prostate = test system: PC-3 prostate
structure (smiles),measurement,setting,value
CO/N=C(\COc1ccc2c(c1)oc(=O)c1cc(OC)ccc12)c1ccc(OC)cc1,GI50,OVCAR-4 ovarian,20.5 µM
same,TGI,OVCAR-4 ovarian,> 100 µM
same,GI50,HOP-62 NSCLC,> 100 µM
same,TGI,HOP-62 NSCLC,> 100 µM
same,GI50,HS 578T breast,> 100 µM
same,TGI,HS 578T breast,> 100 µM
same,GI50,NCI/ADR-RES ovarian,> 100 µM
same,TGI,NCI/ADR-RES ovarian,> 100 µM
same,GI50,T-47D breast,> 100 µM
same,TGI,T-47D breast,> 100 µM
same,GI50,MDA-MB-435,> 100 µM
same,TGI,MDA-MB-435,> 100 µM
same,GI50,SK-MEL-2 melanoma,> 100 µM
same,TGI,SK-MEL-2 melanoma,> 100 µM
same,GI50,SW-620 colon,> 100 µM
same,TGI,SW-620 colon,> 100 µM
same,GI50,COLO 205 colon,> 100 µM
same,TGI,COLO 205 colon,> 100 µM
same,GI50,K-562 leukemia,> 100 µM
same,TGI,K-562 leukemia,> 100 µM
same,GI50,SK-MEL-5 melanoma,> 100 µM
same,TGI,SK-MEL-5 melanoma,> 100 µM
same,GI50,SNB-19 CNS,> 100 µM
same,TGI,SNB-19 CNS,> 100 µM
same,GI50,DU-145 prostate,> 100 µM
same,TGI,DU-145 prostate,> 100 µM
same,GI50,TK-10 renal,> 100 µM
same,TGI,TK-10 renal,> 100 µM
same,GI50,KM12 colon,> 100 µM
same,TGI,KM12 colon,> 100 µM
same,GI50,NCI-H522 lung,> 100 µM
same,TGI,NCI-H522 lung,> 100 µM
same,GI50,SF-295 CNS,> 100 µM
same,TGI,SF-295 CNS,> 100 µM
same,GI50,HCT-116 colon,> 100 µM
same,TGI,HCT-116 colon,> 100 µM
same,GI50,MDA-MB-231 breast,> 100 µM
same,TGI,MDA-MB-231 breast,> 100 µM
same,GI50,HT29 colon,> 100 µM
same,TGI,HT29 colon,> 100 µM
same,GI50,SF-268 CNS,> 100 µM
same,TGI,SF-268 CNS,> 100 µM
same,GI50,UACC-62 melanoma,> 100 µM
same,TGI,UACC-62 melanoma,> 100 µM
same,GI50,SK-MEL-28 melanoma,> 100 µM
same,TGI,SK-MEL-28 melanoma,> 100 µM
same,GI50,CCRF-CEM leukemia,> 100 µM
same,TGI,CCRF-CEM leukemia,> 100 µM
same,GI50,MALME-3M melanoma,> 100 µM
same,TGI,MALME-3M melanoma,> 100 µM
same,GI50,U251 CNS,> 100 µM
same,TGI,U251 CNS,> 100 µM
same,GI50,MOLT-4 leukemia,> 100 µM
same,TGI,MOLT-4 leukemia,> 100 µM
same,GI50,LOX IMVI melanoma,> 100 µM
same,TGI,LOX IMVI melanoma,> 100 µM
same,GI50,IGROV1 ovarian,> 100 µM
same,TGI,IGROV1 ovarian,> 100 µM
same,GI50,MCF7 breast,> 100 µM
same,TGI,MCF7 breast,> 100 µM
same,GI50,SF-539 CNS,> 100 µM
same,TGI,SF-539 CNS,> 100 µM
same,GI50,HCC-2998 colon,> 100 µM
same,TGI,HCC-2998 colon,> 100 µM
same,GI50,OVCAR-5 ovarian,> 100 µM
same,TGI,OVCAR-5 ovarian,> 100 µM
same,GI50,HCT-15 colon,> 100 µM
same,TGI,HCT-15 colon,> 100 µM
same,GI50,A549 NSCLC,> 100 µM
same,TGI,A549 NSCLC,> 100 µM
same,GI50,BT-549 breast,> 100 µM
same,TGI,BT-549 breast,> 100 µM
same,GI50,NCI-H460 lung,> 100 µM
same,TGI,NCI-H460 lung,> 100 µM
same,GI50,M14 melanoma,> 100 µM
same,TGI,M14 melanoma,> 100 µM
same,GI50,CAKI-1 renal,> 100 µM
same,TGI,CAKI-1 renal,> 100 µM
same,GI50,NCI-H226 lung,> 100 µM
same,TGI,NCI-H226 lung,> 100 µM
same,GI50,UO-31 renal,> 100 µM
same,TGI,UO-31 renal,> 100 µM
same,GI50,NCI-H23 lung,> 100 µM
same,TGI,NCI-H23 lung,> 100 µM
same,GI50,OVCAR-3 ovarian,> 100 µM
same,TGI,OVCAR-3 ovarian,> 100 µM
same,GI50,786-0 renal,> 100 µM
same,TGI,786-0 renal,> 100 µM
same,GI50,SK-OV-3 ovarian,> 100 µM
same,TGI,SK-OV-3 ovarian,> 100 µM
same,GI50,OVCAR-8 ovarian,> 100 µM
same,TGI,OVCAR-8 ovarian,> 100 µM
same,GI50,RPMI-8226 leukemia,> 100 µM
same,TGI,RPMI-8226 leukemia,> 100 µM
same,GI50,SN12C renal,> 100 µM
same,TGI,SN12C renal,> 100 µM
same,GI50,A498 renal,> 100 µM
same,TGI,A498 renal,> 100 µM
same,GI50,ACHN renal,> 100 µM
same,TGI,ACHN renal,> 100 µM
same,GI50,HOP-92 NSCLC,> 100 µM
same,TGI,HOP-92 NSCLC,> 100 µM
same,GI50,RXF 393 renal,> 100 µM
same,TGI,RXF 393 renal,> 100 µM
same,GI50,EKVX NSCLC,> 100 µM
same,TGI,EKVX NSCLC,> 100 µM
same,GI50,UACC-257 melanoma,> 100 µM
same,TGI,UACC-257 melanoma,> 100 µM
same,GI50,PC-3 prostate,> 100 µM
same,TGI,PC-3 prostate,> 100 µM
